The text below walks through data of the supplement of paper PMC11061612.

Holding throughout (experiment): Bliss excess, mean over the matrix (fraction); higher = more synergy
For assay [1], the system named is U-118-MG (Low Grade Glioma). A digest of the protocol: (§1)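 Cell lines grown in DMEM/F12 or RPMI with 10% FBS were plated in 1536-well plates and held 24 hours at 37°C, 5% CO2 before 72 hours of exposure to two-drug dose matrices, with DMSO typically at 0.2%. CellTiter-Glo 2.0 luminescence gave viability, which was converted to inhibition. Vehicle wells were set to 0 and blank wells to 1. Combination Emax is the second-highest inhibition in the matrix, and Bliss excess is the observed combination effect minus the expected EA + EB − EA·EB, where EA and EB are the single-agent effects.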

For assay [2], the system named is PA-TU-8902 (Pancreatic Carcinoma). In outline: as §1
Assay [3] relates to JHH-6 (Hepatocellular Carcinoma). In outline:
as §1

For assay [4], the system named is DOK (Oral Cavity Carcinoma). In outline:
as §1

For assay [5], the system named is BICR78 (Oral Cavity Carcinoma). A digest of the protocol:
as §1

In assay [6] the test system is EFM-192A (Breast Carcinoma). A digest of the protocol: as §1
In assay [7] the test system is ETK-1 (Biliary Tract Carcinoma). A digest of the protocol: as §1
In assay [8] the test system is HOP-92 (Non-Small Cell Lung Carcinoma). In outline: as §1
For the next assay, the system named is EW-22 (Ewing's Sarcoma). In outline: as §1
A further assay deals with A172 (Glioblastoma). In outline:
as §1

The subject of assay [9] is MEG-01 (Chronic Myelogenous Leukemia). A digest of the protocol:
as §1

The test system of assay [10] is SK-UT-1 (Other Solid Carcinomas). In outline: as §1
The test system of assay [11] is YT (Other Blood Carcinomas). In outline: as §1
Assay [12] relates to CAL-39 (Other Solid Carcinomas). A digest of the protocol: as §1
For assay [13], the system named is WSU-DLCL2 (B-Cell Non-Hodgkin's Lymphoma). In outline: as §1
In assay [14] the test system is SLVL (B-Cell Non-Hodgkin's Lymphoma). A digest of the protocol: as §1
The subject of another assay is SK-MEL-1 (Melanoma). A digest of the protocol: as §1
Assay [15] has as its system HCT-116 (Colorectal Carcinoma). A digest of the protocol: as §1
Assay [16] has as its system GDM-1 (Acute Myeloid Leukemia). In outline:
as §1

Each structure is given as a SMILES string.

As for `CN(C)CCCOc1ccc(-c2ccc3ncc4c(c3c2)n(C2CCOCC2)c(=O)n4C)cn1` [AZD0156] + O=C(c1cc(Cc2n[nH]c(=O)c3ccccc23)ccc1F)N1CCN(C(=O)C2CC2)CC1 [Olaparib] (first compound max 3 µM, partner max 3 µM), the Bliss excess in [1] is 0.0122; in [2] it was -0.0456; in assay [3], -0.019; in assay [4], 0.0549; in assay [5] it was -0.0507; in assay [6], -0.0026. For the same molecule, the Bliss excess in [7] is -0.0029; in assay [8], 0.0111; with EW-22 (Ewing's Sarcoma), 0.217; in the assay with A172 (Glioblastoma), 0.0378; in [9], 0.0239; in [10] it was 0.0429. Also, the Bliss excess in [11] is 0.0265; in assay [12], 0.0549; in [13], 0.211; in assay [14], 0.0638; with SK-MEL-1 (Melanoma) it was -0.0491; in assay [15], 0.129. Further, in assay [16], the Bliss excess is 0.109.
With `C=CCn1c(=O)c2cnc(Nc3ccc(N4CCN(C)CC4)cc3)nc2n1-c1cccc(C(C)(C)O)n1` [AZD1775] + C1CN(CCC1(C(=O)N[C@@H](CCO)C2=CC=C(C=C2)Cl)N)C3=NC=NC4=C3C=CN4 [Capivasertib] (first compound max 3 µM, partner max 3 µM), the Bliss excess in assay [1] is -0.0726; in assay [2] it was -0.0609; in assay [3], -0.0294; in assay [4] it was 0.0014; in assay [5], -0.0822; in [6], -0.0004. The Bliss excess in [7] was -0.107; in [8], 0.0152; in the assay on EW-22 (Ewing's Sarcoma), 0.0403; in the assay with A172 (Glioblastoma), -0.0099; in assay [10] it was -0.0037; in assay [11], -0.0938. For the same molecule, the Bliss excess was -0.0152 in assay [12]; -0.0709 in assay [13]; -0.059 with SK-MEL-1 (Melanoma); 0.0051 in assay [15]; -0.0422 in assay [16].
Turning to `COc1nnc2ccc(N3CCC(c4ccc(OCCN5CCN(C)C(=O)[C@H]5C)cc4)CC3)nn12` [AZD5153] + C=CCn1c(=O)c2cnc(Nc3ccc(N4CCN(C)CC4)cc3)nc2n1-c1cccc(C(C)(C)O)n1 [AZD1775] (first compound max 1 µM, partner max 1 µM), the Bliss excess in assay [1] was -0.0235; in assay [2], 0.0421; in [3], -0.048; in assay [4] it was -0.0239; in assay [5], -0.0302; in assay [6], -0.0138. Also, the Bliss excess was -0.0736 in assay [7]; -0.0301 in assay [8]; 0.0427 in the assay with EW-22 (Ewing's Sarcoma); -0.0521 in the assay on A172 (Glioblastoma); -0.0693 in assay [9]; -0.0323 in assay [10]. Moreover, the Bliss excess was -0.0842 in assay [11]; -0.0493 in assay [12]; -0.0085 in assay [13]; -0.142 in assay [14]; -0.0312 in the assay with SK-MEL-1 (Melanoma); -0.0367 in assay [15]. The Bliss excess in assay [16] was -0.0247.
Regarding `COc1nnc2ccc(N3CCC(c4ccc(OCCN5CCN(C)C(=O)[C@H]5C)cc4)CC3)nn12` [AZD5153] + CC1(C)CCC(CN2CCN(c3ccc(C(=O)NS(=O)(=O)c4ccc(NCC5CCOCC5)c([N+](=O)[O-])c4)c(Oc4cnc5[nH]ccc5c4)c3)CC2)=C(c2ccc(Cl)cc2)C1 [Venetoclax] (first compound max 1 µM, 7x7, partner max 1 µM), the Bliss excess in assay [1] was -0.0349; in [2], -0.0908; in assay [3] it was -0.0443; in assay [4] it was -0.0696; in assay [5] it was -0.0468; in assay [6] it was -0.0257. Also, the Bliss excess in assay [7] was -0.11; in assay [8], -0.0242; in the assay on EW-22 (Ewing's Sarcoma), -0.0176; with A172 (Glioblastoma), -0.0363; in assay [9], -0.0627; in assay [10] it was -0.0459. Also, the Bliss excess in [11] is -0.0496; in assay [12], -0.0432; in [13], 0.0805; in [14], -0.0277; in the assay with SK-MEL-1 (Melanoma), 0.0777; in [15], -0.0614. The Bliss excess in [16] is 0.0348.
As for `COc1nnc2ccc(N3CCC(c4ccc(OCCN5CCN(C)C(=O)[C@H]5C)cc4)CC3)nn12` [AZD5153] + CCN(CCO)CCCOc1ccc2c(Nc3cc(CC(=O)Nc4cccc(F)c4)[nH]n3)ncnc2c1 [AZD2811] (first compound max 1 µM, 7x7, partner max 1 µM), the Bliss excess was -0.0317 in [1]; -0.0246 in assay [2]; -0.0683 in assay [3]; -0.0906 in assay [4]; -0.0537 in assay [5]; -0.0154 in assay [6]. Also, the Bliss excess in assay [7] is -0.118; in assay [8], -0.079; in the assay on EW-22 (Ewing's Sarcoma), -0.0779; in the assay with A172 (Glioblastoma), -0.0466; in assay [9] it was -0.047; in [10], -0.0144. Further, the Bliss excess in [11] was -0.0579; in assay [12] it was -0.0508; in assay [13], -0.019; in [14] it was -0.151; in the assay with SK-MEL-1 (Melanoma), -0.0295; in assay [15] it was -0.0384. Also, the Bliss excess in assay [16] was -0.0378.
For `COc1nnc2ccc(N3CCC(c4ccc(OCCN5CCN(C)C(=O)[C@H]5C)cc4)CC3)nn12` [AZD5153] + C[C@@H]1COCCN1C2=NC(=NC(=C2)C3(CC3)[S@](=N)(=O)C)C4=C5C=CNC5=NC=C4 [AZD6738] (first compound max 1 µM, 7x7, partner max 10 µM), the Bliss excess in assay [1] is 0.0267; in assay [2] it was 0.0565; in assay [3] it was -0.0111; in [4] it was 0.008; in assay [5] it was 0.0056; in [6], 0.0551. Also, the Bliss excess in assay [7] is 0.0107; in assay [8] it was 0.0246; in the assay with EW-22 (Ewing's Sarcoma), -0.0258; in the assay on A172 (Glioblastoma), -0.0059; in [9] it was -0.0595; in [10], 0.0401. The Bliss excess in assay [11] is -0.0687; in [12], -0.011; in [13] it was -0.0467; in assay [14], -0.13; in the assay with SK-MEL-1 (Melanoma), 0.0103; in [15], -0.0049. For the same molecule, the Bliss excess in assay [16] came out at 0.0146.
Consider `COc1nnc2ccc(N3CCC(c4ccc(OCCN5CCN(C)C(=O)[C@H]5C)cc4)CC3)nn12` [AZD5153] + Cc1c2c(nn1C)CSCc1cc(n(C)n1)CSc1cc(c3ccccc3c1)OCCCc1c(C(=O)O)n(C)c3c-2c(Cl)ccc13 [AZD5991] (first compound max 1 µM, 7x7, partner max 1 µM), for which the Bliss excess in assay [1] was -0.0341; in assay [2], -0.0316; in [3] it was -0.0727; in assay [4], -0.0051; in assay [5], -0.027; in assay [6], -0.0467. Besides, the Bliss excess in assay [7] was -0.0436; in assay [8], -0.001; in the assay on EW-22 (Ewing's Sarcoma), 0.0553; in the assay with A172 (Glioblastoma) it was -0.0698; in [9], -0.0104; in [10], -0.0031. The Bliss excess in assay [11] is -0.0316; in [12], 0.0313; in assay [13], 0.0182; in assay [14], -0.119; in the assay with SK-MEL-1 (Melanoma), -0.0016; in assay [15] it was -0.0049. In assay [16], the Bliss excess turned out to be 0.0307.
